Test results: patent publication US20250041239A1, “ORALLY DISSOLVING ANTIMICROBIAL FILM COMPOSITIONS & METHODS OF THEIR USE” (ISHA Therapeutics LLC, priority 2022, published 2025)
≈ marks a conversion by molar mass, not a printed value.

Key:
Candida tropicalis = assay: Agar cup diffusion, zone of inhibition; assay type: cell-based
From the text: (§1) This Example provides a description of the antifungal activity of the active pharmaceutical ingredient amphotericin B in the orally dissolvable films disclosed herein compared to that of unmodified amphotericin B. Test organisms utilized in this experiment were Candida albicans and Candida tropicalis. Orally dissolvable amphotericin B-containing film(s) utilized in this Example were made according to the process described in Example 3.
(§2) Two different species of infectious fungal genus Candida were cultured. A first mixture of sabouraud dextrose agar and broth was inoculated with Candida albicans and allowed to sit at room temperature for a period of two days under aerobic conditions. A second mixture of sabouraud dextrose agar and broth was inoculated with Candida tropicalis and allowed to sit at room temperature for 2 days under aerobic conditions. This established two cultures (one each) of the test organisms.
(§3) To standardize the respective cultures, the optical density of each culture was adjusted using a 0.5 McFarland (turbidity) standard, approximating cultures to be approximately […] colony forming units per milliliter (cfu/mL).
(§4) Each respective suspension was mixed until homogeneous to provide a final culture density of about 1×10^4 cfu/mL.
(§5) Agar cup diffusion was used for testing antifungal activity of the test compositions. 0.1 mL of each respective sample of amphotericin B or amphotericin B-containing film was provided in a cylinder. Film concentration was 1.8 mg amphotericin B per film. Each test plate contained two samples (two cylinders). Tests were performed in triplicate (3 plates per test composition). Plates were incubated at room temperature for a period of 2 days as amphotericin B test compositions were allowed to diffuse into the agar layer containing test organism(s).
(§6) Amphotericin B and amphotericin B-containing films were then evaluated for in vitro antifungal activity by measuring the zone of inhibition and microbial inhibition concentration (MIC) of each sample. Results are shown in FIGS. 2A, 2B, and 2C for the test organism Candida albicans and FIGS. 3A, 3B, and 3C for the test organism Candida tropicalis. Therein, amphotericin B samples are indicated as “A” and amphotericin B-containing films are indicated as “B”.

Candida albicans = assay: Agar cup diffusion, zone of inhibition; assay type: cell-based
From the text: as §1, §2, §3, §4, §5, §6

Candida spp. = assay: Resazurin microtiter assay (REMA), MIC, Candida spp. tested; assay type: cell-based; conditions: Candida albicans and Candida tropicalis; read-out: average MIC against Candida spp. tested
Experimental: This Example provides a description of antifungal efficacy testing wherein minimum inhibitor concentration (MIC) of the active pharmaceutical ingredient amphotericin B in the orally dissolvable films disclosed herein compared to that of unmodified amphotericin B. The test organisms utilized in this experiment were Candida tropicalis and Candida albicans.
A resazurin microtiter assay (REMA) assay was performed using orally dissolvable films prepared according to the process described in Example 3 and unmodified amphotericin B. Samples were run in triplicate as Sets 1-3 for each test material against each pathogen.

[1] = physiological pH; cited from earlier work
[2] = 0.1 mL sample, room temperature, 2 days

## C[C@@H]1[C@H](O)[C@@H](C)/C=C/C=C/C=C/C=C/C=C/C=C/C=C/[C@H](O[C@@H]2O[C@H](C)[C@@H](O)[C@H](N)[C@@H]2O)C[C@@H]2O[C@](O)(C[C@@H](O)C[C@@H](O)[C@H](O)CC[C@@H](O)C[C@@H](O)CC(=O)O[C@H]1C)C[C@H](O)[C@H]2C(=O)O [AmpB, (1R,3S,5R,6R,9R,11R,15S,16R, 17R, 18S, 19E,21E,23E, 25E, 27E,29E,31E,33R,35S,36R,37S)-33-[(2R,3S,4S,5S,6R)-4-amino-3,5-di hydroxy-6-methyloxan-2-yl]oxy-1,3,5,6,9,11,17,37-octahydroxy-15,16,18-trimethyl-13-oxo-14,39-dioxabicyclo[33.3.1]nonatriaconta-19,21,23, 25, 27,29,31-heptaene-36-carboxylic acid]
Candida tropicalis; [2]
  Zone of Inhibition, Set 1: 20 mm
  Zone of Inhibition, Set 2: 22 mm
  Zone of Inhibition, Set 3: 22 mm
Candida tropicalis; mean of Sets 1-3
  Effective Zone of Inhibition: 21.33 ± 1.15 mm
Candida albicans; [2]
  Zone of Inhibition, Set 1: 19 mm
  Zone of Inhibition, Set 2: 19 mm
  Zone of Inhibition, Set 3: 20 mm
Candida albicans; mean of Sets 1-3
  Effective Zone of Inhibition: 19.33 ± 0.57 mm
Candida spp.
  MIC: ~1.1 µg/mL (≈ 1.19 µM)
[1]
  solubility in saline: insoluble
